Measurements from ChEMBL document CHEMBL1132062, “A new class of potent RAR antagonists: dihydroanthracenyl, benzochromenyl and benzothiochromenyl retinoids” (Bioorg Med Chem Lett, 1999).

molecular target: T1, Retinoic acid receptor gamma (Homo sapiens, UniProt P13631); assay: Binding affinity of [3H]- RA to baculovirus expressed human Retinoic acid receptor gamma; conditions: not given
T1 sequence (P13631 whole entry): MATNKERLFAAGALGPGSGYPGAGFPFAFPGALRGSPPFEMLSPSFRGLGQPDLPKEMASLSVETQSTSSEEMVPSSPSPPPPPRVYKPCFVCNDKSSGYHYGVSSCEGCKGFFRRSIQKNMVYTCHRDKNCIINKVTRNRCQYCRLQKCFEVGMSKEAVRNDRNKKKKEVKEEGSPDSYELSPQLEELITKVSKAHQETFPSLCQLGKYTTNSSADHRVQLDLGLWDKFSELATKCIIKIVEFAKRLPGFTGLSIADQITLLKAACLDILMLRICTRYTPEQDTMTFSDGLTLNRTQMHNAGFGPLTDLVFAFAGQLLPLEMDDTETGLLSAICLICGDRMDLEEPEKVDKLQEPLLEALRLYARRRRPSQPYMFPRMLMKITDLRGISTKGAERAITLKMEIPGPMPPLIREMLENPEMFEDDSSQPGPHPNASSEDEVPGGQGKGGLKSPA

| Kd [nM] | SMILES |
| --- | --- |
| 18 | Cc1ccc(C2=CC(C)(C)Sc3cc4ccc(-c5ccc(C(=O)O)cc5)cc4cc32)s1 |
| 5 | Cc1ccc(C2=CC(C)(C)Sc3cc4ccc(-c5ccc(C(=O)O)cc5)cc4cc32)cc1 [listing 1 of 2 here] |
| 7 | Cc1ccc(C2=CCC(C)(C)c3cc4ccc(-c5ccc(C(=O)O)cc5)cc4cc32)cc1 [listing 1 of 2 here] |

molecular target: T2, Retinoic acid receptor beta (Homo sapiens, UniProt P10826); assay: Binding affinity of [3H]- RA to baculovirus expressed human Retinoic acid receptor beta; conditions: not given
T2 sequence (P10826 whole entry): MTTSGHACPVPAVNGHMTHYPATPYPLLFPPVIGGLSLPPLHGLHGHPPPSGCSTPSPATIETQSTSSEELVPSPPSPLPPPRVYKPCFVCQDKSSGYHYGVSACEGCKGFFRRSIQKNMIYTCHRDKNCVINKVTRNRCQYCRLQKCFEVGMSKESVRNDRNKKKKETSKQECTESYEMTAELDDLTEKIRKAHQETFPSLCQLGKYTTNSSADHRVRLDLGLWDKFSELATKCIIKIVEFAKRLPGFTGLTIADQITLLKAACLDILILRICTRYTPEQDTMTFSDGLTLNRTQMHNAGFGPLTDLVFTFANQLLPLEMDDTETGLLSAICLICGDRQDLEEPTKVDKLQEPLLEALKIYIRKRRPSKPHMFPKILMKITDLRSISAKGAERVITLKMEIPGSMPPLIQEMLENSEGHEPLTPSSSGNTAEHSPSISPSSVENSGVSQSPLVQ

| Kd [nM] | SMILES |
| --- | --- |
| 13 | Cc1ccc(C2=CC(C)(C)Sc3cc4ccc(-c5ccc(C(=O)O)cc5)cc4cc32)s1 |
| 6 | Cc1ccc(C2=CC(C)(C)Sc3cc4ccc(-c5ccc(C(=O)O)cc5)cc4cc32)cc1 [listing 1 of 2 here] |
| 4 | Cc1ccc(C2=CCC(C)(C)c3cc4ccc(-c5ccc(C(=O)O)cc5)cc4cc32)cc1 [listing 1 of 2 here] |

molecular target: T1, Retinoic acid receptor gamma; assay: Antagonistic activity against RAR gamma in transcriptional activation assay with 3.2 nM TTNPB; assay type: functional; conditions: not given

| IC50 [nM] | SMILES |
| --- | --- |
| 0.5 | Cc1ccc(C2=CC(C)(C)Sc3cc4ccc(-c5ccc(C(=O)O)cc5)cc4cc32)cc1 [listing 1 of 2 here] |
| 4 | Cc1ccc(C2=CC(C)(C)Oc3cc4ccc(-c5ccc(C(=O)O)cc5)cc4cc32)s1 |
| 2 | Cc1ccc(C2=CCC(C)(C)c3cc4ccc(-c5ccc(C(=O)O)cc5)cc4cc32)cc1 [listing 1 of 2 here] |

molecular target: T3, Retinoic acid receptor alpha (Homo sapiens) (UniProt P10276); assay: Relative inhibition of TTNPB activity vs background activity (100% inhibition) against RAR alpha; assay type: functional; conditions: concentration not given here
T3 sequence (whole entry): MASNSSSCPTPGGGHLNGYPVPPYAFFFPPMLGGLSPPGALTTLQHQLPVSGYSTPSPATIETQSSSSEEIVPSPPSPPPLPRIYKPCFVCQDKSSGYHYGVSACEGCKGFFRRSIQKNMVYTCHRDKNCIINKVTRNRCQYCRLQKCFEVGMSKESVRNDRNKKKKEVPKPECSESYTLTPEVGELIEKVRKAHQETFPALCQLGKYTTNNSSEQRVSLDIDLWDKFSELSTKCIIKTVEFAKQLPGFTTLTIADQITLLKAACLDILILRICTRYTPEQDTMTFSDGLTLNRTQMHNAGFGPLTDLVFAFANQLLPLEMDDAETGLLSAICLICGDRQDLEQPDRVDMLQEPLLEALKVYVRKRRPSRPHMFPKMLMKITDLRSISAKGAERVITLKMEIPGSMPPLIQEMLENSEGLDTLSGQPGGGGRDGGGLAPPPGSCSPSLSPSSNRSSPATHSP

| SMILES | inhibition [%] |
| --- | --- |
| Cc1ccc(C2=CCC(C)(C)c3cc4ccc(-c5ccc(C(=O)O)cc5)cc4cc32)cc1 [listing 2 of 2 here] | 97 |
| Cc1ccc(C2=CC(C)(C)Oc3cc4ccc(-c5ccc(C(=O)O)cc5)cc4cc32)s1 | 97 |

The next lines start with the values.

| inhibition [%] | SMILES |
| --- | --- |
| 97 | Cc1ccc(C2=CC(C)(C)Sc3cc4ccc(-c5ccc(C(=O)O)cc5)cc4cc32)cc1 [listing 2 of 2 here] |
| 97 | Cc1ccc(C2=CC(C)(C)Oc3cc4ccc(-c5ccc(C(=O)O)cc5)cc4cc32)cc1 |

molecular target: T4, Retinoic acid receptor alpha (Homo sapiens, UniProt P10276); assay: Binding affinity of [3H]- RA to baculovirus expressed human RAR alpha; conditions: not given
T4 sequence (P10276 whole entry): T3 sequence (whole entry)

| Kd [nM] | SMILES |
| --- | --- |
| 13 | Cc1ccc(C2=CC(C)(C)Sc3cc4ccc(-c5ccc(C(=O)O)cc5)cc4cc32)s1 |
| 5.5 | Cc1ccc(C2=CC(C)(C)Sc3cc4ccc(-c5ccc(C(=O)O)cc5)cc4cc32)cc1 [listing 1 of 2 here] |
| 13 | Cc1ccc(C2=CCC(C)(C)c3cc4ccc(-c5ccc(C(=O)O)cc5)cc4cc32)cc1 [listing 1 of 2 here] |

molecular target: T2, Retinoic acid receptor beta; assay: Antagonistic activity against RAR beta in transcriptional activation assay with 10 nM TTNPB; assay type: functional; conditions: not given

| IC50 [nM] | SMILES |
| --- | --- |
| 2 | Cc1ccc(C2=CC(C)(C)Sc3cc4ccc(-c5ccc(C(=O)O)cc5)cc4cc32)cc1 [listing 1 of 2 here] |
| 6.5 | Cc1ccc(C2=CC(C)(C)Oc3cc4ccc(-c5ccc(C(=O)O)cc5)cc4cc32)s1 |
| 22 | Cc1ccc(C2=CCC(C)(C)c3cc4ccc(-c5ccc(C(=O)O)cc5)cc4cc32)cc1 [listing 1 of 2 here] |

molecular target: T5, Retinoic acid receptor beta (Homo sapiens) (UniProt P10826); assay: Relative inhibition of TTNPB activity vs background activity (100% inhibition) against RAR beta; assay type: functional; conditions: concentration not given here
T5 sequence (whole entry): T2 sequence (P10826 whole entry)

| SMILES | inhibition [%] |
| --- | --- |
| Cc1ccc(C2=CCC(C)(C)c3cc4ccc(-c5ccc(C(=O)O)cc5)cc4cc32)cc1 [listing 2 of 2 here] | 97 |
| Cc1ccc(C2=CC(C)(C)Oc3cc4ccc(-c5ccc(C(=O)O)cc5)cc4cc32)s1 | 98 |

Next, values leading:

| inhibition [%] | SMILES |
| --- | --- |
| 98 | Cc1ccc(C2=CC(C)(C)Sc3cc4ccc(-c5ccc(C(=O)O)cc5)cc4cc32)cc1 [listing 2 of 2 here] |
| 98 | Cc1ccc(C2=CC(C)(C)Oc3cc4ccc(-c5ccc(C(=O)O)cc5)cc4cc32)cc1 |

molecular target: T6, Retinoic acid receptor gamma (Homo sapiens) (UniProt P13631); assay: Relative inhibition of TTNPB activity vs background activity(100% inhibition) against RAR gamma; assay type: functional; conditions: concentration not given here
T6 sequence (whole entry): T1 sequence (P13631 whole entry)

| SMILES | inhibition [%] |
| --- | --- |
| Cc1ccc(C2=CCC(C)(C)c3cc4ccc(-c5ccc(C(=O)O)cc5)cc4cc32)cc1 [listing 2 of 2 here] | 98 |
| Cc1ccc(C2=CC(C)(C)Oc3cc4ccc(-c5ccc(C(=O)O)cc5)cc4cc32)s1 | 97 |

Now from value to compound:

| inhibition [%] | SMILES |
| --- | --- |
| 98 | Cc1ccc(C2=CC(C)(C)Sc3cc4ccc(-c5ccc(C(=O)O)cc5)cc4cc32)cc1 [listing 2 of 2 here] |
| 98 | Cc1ccc(C2=CC(C)(C)Oc3cc4ccc(-c5ccc(C(=O)O)cc5)cc4cc32)cc1 |

molecular target: T4, Retinoic acid receptor alpha; assay: Antagonistic activity against RAR alpha in transcriptional activation assay with 32 nM TTNPB; assay type: functional; conditions: not given

| IC50 [nM] | SMILES |
| --- | --- |
| 1.5 | Cc1ccc(C2=CC(C)(C)Sc3cc4ccc(-c5ccc(C(=O)O)cc5)cc4cc32)cc1 [listing 1 of 2 here] |
| 6.5 | Cc1ccc(C2=CC(C)(C)Oc3cc4ccc(-c5ccc(C(=O)O)cc5)cc4cc32)s1 |
| 20 | Cc1ccc(C2=CCC(C)(C)c3cc4ccc(-c5ccc(C(=O)O)cc5)cc4cc32)cc1 [listing 1 of 2 here] |
